Assay results as given in BigSolDB 2.1.

CCOC(=O)C1=C[C@]2(CC)CCCN3CCc4c(n1c1ccccc41)[C@@H]32
solubility (mole fraction)
Conditions	in 2-butanone	in cyclohexane	in ethanol	in ethyl acetate	in isopropanol	in methanol	in methyl acetate	in n-butanol	in n-propanol
283.15 K	0.00526	0.00133	0.000492	0.0039	0.000345	0.000378	0.00262	0.000936	0.000727
288.15 K	0.00649	0.0017	0.000641	0.00481	0.000474	0.000476	0.00329	0.00127	0.00098
293.15 K	0.00793	0.00216	0.00082	0.00585	0.000643	0.000608	0.00416	0.0017	0.00126
298.15 K	0.00962	0.00274	0.00101	0.00718	0.000834	0.000736	0.00517	0.0022	0.00164
303.15 K	0.0118	0.00346	0.00126	0.00879	0.00108	0.00089	0.00646	0.00285	0.00208
308.15 K	0.0142	0.00433	0.00158	0.0106	0.00137	0.0011	0.00794	0.00374	0.00268
313.15 K	0.017	0.00537	0.00197	0.0127	0.00184	0.00136	0.00973	0.0048	0.00343
318.15 K	0.0203	0.00656	0.00245	0.0154	0.00245	0.00166	0.0121	0.00632	0.00435
323.15 K	0.0239	0.00802	0.00302	0.0185	0.00323	0.00204	0.0148	0.00806	0.00528
